Among the data in US11590129B2, “Combination therapy with an antitumor alkaloid” (PHARMA MAR, S.A., priority 2010, dated 2023) are IC50 and EC50 values, retold here.

Molecules are shown by their SMILES. pEC50, pIC50: −log10 of the molar value. Where two headings read alike, the source gives them in different places.

Test [1] deals with PC-3 human prostate cancer cell line. Put plainly: cells. Particulars: Homo sapiens, PC-3, 72 h. The procedure, abridged:
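Cells seeded at 5,000/well, grown 24 h drug-free, then exposed to vehicle or test compounds for 72 h. Viability by MTT reduction (8 h, 37 °C), formazan dissolved in DMSO. Values given as percentage of control cell growth.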

The subject of test [2] is A673 human rhabdomyosarcoma cell line. Nature of the test: cells. The note with it: Homo sapiens, A673, 72 h. The procedure, abridged:
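A673 cells seeded at 5,000 per well, grown 24 h drug-free, then exposed to compounds for 72 h. Viability by MTT reduction (8 h, 37 °C), formazan dissolved in DMSO. Results expressed as percentage of control cell growth.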

In test [3] the test system is SK-MEL-2 human melanoma cell line. Nature of the test: cells. The note with it: Homo sapiens, SK-MEL-2, 72 h. The procedure, abridged: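 SK-MEL-2 melanoma cells (5,000/well) grown 24 h drug-free, then exposed 72 h to vehicle or test compounds. Viability by MTT reduction (8 h, 37 °C), formazan dissolved in DMSO; results expressed as percentage of control cell growth.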

Test [4] concerns RAMOS human lymphoma cell line. Nature of the test: cells. The note with it: Homo sapiens, Ramos, 72 h. Here is the method:
(§1) Briefly, cells were seeded in 96 well microtiter plates at a density of 50000 cells per well in 150 μL of culture medium and incubated for 4-6 hours in drug-free medium before treatment with vehicle alone or test compounds for 72 hours.
(§2) After incubation, the cytotoxic effect was evaluated using a MTT reduction assay. 50 μL of MTT solution (1 mg/mL) were added to the wells and incubated for 15-17 hours at 37° C. until formazan crystals were formed. After gently removing the culture medium, DMSO was added to dissolve the insoluble purple formazan product into a colored solution. […] Results were expressed as percentage of control cell growth. The EC50 values (half-maximal effective concentration) used for the combination studies were calculated using Prism v5.02 software (GraphPad). EC50 was expressed as molar concentration and represented the mean of at least three independent assays.
(§3) Using these starting concentrations, constant serial dilutions were performed to generate the concentration-response curves for each set of drugs, alone and in combination.
(§4) Based on this equation, the term “combination index” (CI) is used as a quantitative measure of the degree of drug interactions. […] CI values were calculated by solving the equation for different values of fa (i.e., for different degrees of cell groth inhibition).
(§5) Data were analyzed using CalcuSyn software (Biosoft, Cambridge, UK). For statistical analysis and graphs Prism software (GraphPad, San Diego, USA) was used. All the results represent the mean of at least three independent experiments.
(§6) Additional serial dilutions were prepared in serum-free culture medium to achieve a final 4× concentration. Aliquots of 50 μL of each diluted compound were added per well.
(§7) In the second set of assays, concentration-response curves for the agents tested, both alone and in two-drug combination, were performed.

For test [5], the system named is HGC-27 human gastric carcinoma cell line. Nature of the test: cells. Particulars: Homo sapiens, HGC-27, 72 h.
In test [6] the test system is HT-29 human colon adenocarcinoma cell line. Nature of the test: cells. Particulars: Homo sapiens, HT-29, 72 h. The procedure, abridged:
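HT-29 cells (5,000/well) were attached for 24 h, then exposed to vehicle or compounds for 72 h. Viability was read by MTT reduction, with 8 h MTT at 37° C and formazan dissolved in DMSO. Values are % of control cell growth.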

The subject of test [7] is IGROV-1 human ovarian adenocarcinoma cell line. Put plainly: cells. Particulars: Homo sapiens, IGROV-1, 72 h.
Test [8] concerns PANC-1 human pancreatic carcinoma cell line. Nature of the test: cells. Particulars: Homo sapiens, PANC-1, 72 h. The procedure, abridged: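 Cells seeded at 5,000/well, left 24 h drug-free, then exposed to test compounds for 72 h. Viability read by MTT reduction (MTT added for 8 h at 37° C, formazan dissolved in DMSO).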
For test [9], the system named is HepG2 human hepatocellular liver carcinoma cell line. Nature of the test: MTT cytotoxicity assay in HepG2 cells: IC50 of single agents and combinations with PM01183. In kind it is cell-based. The note with it: Homo sapiens. Background: Formazan colour is commonly taken as a measure of viable cells.
In test [10] the test system is MDA-MB-231 human breast adenocarcinoma cell line. Put plainly: cells. The note with it: Homo sapiens, MDA-MB-231, 72 h.
Test [11] deals with RXF-393 human kidney carcinoma cell line. Nature of the test: cells. Particulars: Homo sapiens, RXF 393, 72 h.
Test [12] deals with U-937 human lymphoma cell line. Put plainly: cells. The note with it: Homo sapiens, U-937, 72 h. The method, then: as §1, §2, §3, §4, §5, §6, §7
The subject of test [13] is JURKAT human leukemia cell line. Nature of the test: cells. Particulars: Homo sapiens, Jurkat, 72 h. Here is the method:
as §6
JURKAT and MOLT-4 were the human leukemia cell lines selected for this assay, which were obtained from the American Type Culture Collection (ATCC).
as §1, §2
b. In a second set of experiments, concentration-response curves for the agents tested, both alone and in two-drug combination, were performed, using the same methodology described in the previous paragraph.
as §3, §4, §5

For test [14], the system named is A549 human lung carcinoma cell line. Nature of the test: MTT cytotoxicity assay in A549 cells: IC50 of single agents and combinations with PM01183. Particulars: Homo sapiens; A549, 72 hours drug exposure, MTT; read-out: IC50. In kind it is cell-based. The method, boiled down: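 A549 cells seeded at 5,000 per well, grown 24 h drug-free, then exposed to vehicle or compounds for 72 h, either singly or combined with PM01183. Combination responses plotted against dose ratio relative to an additivity line.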

Test [15] relates to U87-MG human glioblastoma cell line. Put plainly: cells. The note with it: Homo sapiens, U-87 MG, 72 h.

With `Nc1ccn([C@@H]2O[C@H](CO)[C@@H](O)[C@@H]2O)c(=O)n1` [Cytarabine, cytarabine], the pIC50 in [1] is 4.40; in [2], 6.71; in test [3], 5.41; in test [5], 4.30; in test [6], 5.11; in test [7] it was 4.93. The pIC50 is 4.05 in [8]; 4.69 in test [9] (HepG2, 72 h); 5.02 in test [10]; 4.30 in test [11]. In addition, the pEC50 in test [4] is 7.44.

With `COc1cccc2c1C(=O)c1c(O)c3c(c(O)c1C2=O)C[C@@](O)(C(C)=O)C[C@@H]3O[C@H]1C[C@H](N)[C@H](O)[C@H](C)O1` [Daunorubicin, daunorubicin], the pIC50 in test [1] is 5.94; in test [2], 6.28; in test [3], 6.75; in test [5] it was 6.43; in [6] it was 6.27; in test [7], 6.45. Besides, the pIC50 in [8] was 6.06; in test [14] it was 6.45; in test [9] (HepG2, 72 hours drug exposure, MTT, read-out: IC50) it was 6.52; in test [15], 6.55; in [10], 6.43; in test [11], 6.21. Further, the pEC50 in test [4] is 6.50; in [12], 6.52; in [13] it was 6.10.

Usually pIC50 stands for −log10 of the IC50, conventionally taken in molar units. For orientation: pEC50 means the negative decadic logarithm of the EC50, by convention in mol/L.
